ChEMBL document CHEMBL1157430, “Design, synthesis, and structure-activity relationship study of a novel class of ORL1 receptor antagonists based on N-biarylmethyl spiropiperidine” (Bioorg Med Chem Lett, 2008)
pIC50: −log10 of the molar value.

Key:
[1] = Antagonist activity at human ORL1 expressed in CHO cells by GTPgammaS binding assay; type: cell-based; conditions: read-out: I50
[2] = Lipophilicity Log D at pH 7.4 by shake flask method; type: physicochemical; conditions: buffer
[3] = Displacement of [125I]Tyr14-NC/OFQ from human ORL1 expressed in CHO cells; type: cell-based; conditions: read-out: I50
CHO = test: Displacement of [125I]Tyr14-NC/OFQ from human ORL1 expressed in CHO cells at 1 uM; type: cell-based
[4] = Metabolic stability in human liver microsomes at 1 uM after 30 mins; type: ADME, Microsome; conditions: read-out: Stability
[5] = Metabolic stability in rat liver microsomes at 1 uM after 30 mins; type: ADME, Microsome; conditions: read-out: Stability
[6] = biological target: Kappa-type opioid receptor (Homo sapiens, UniProt P41145); test: Displacement of [3H]U69593 from human cloned kappa opioid receptor expressed in CHO cells; type: cell-based
[7] = biological target: Voltage-gated inwardly rectifying potassium channel KCNH2 (Homo sapiens, UniProt Q12809); test: Displacement of [35S]MK499 from human ERG in HEK293 cell membrane
Mu-type opioid receptor = Mu-type opioid receptor (Homo sapiens, UniProt P35372); test: Displacement of [3H]diprenorphin from human cloned mu opioid receptor expressed in CHO cells; type: cell-based
Mu-type opioid receptor, sequence (P35372 whole entry): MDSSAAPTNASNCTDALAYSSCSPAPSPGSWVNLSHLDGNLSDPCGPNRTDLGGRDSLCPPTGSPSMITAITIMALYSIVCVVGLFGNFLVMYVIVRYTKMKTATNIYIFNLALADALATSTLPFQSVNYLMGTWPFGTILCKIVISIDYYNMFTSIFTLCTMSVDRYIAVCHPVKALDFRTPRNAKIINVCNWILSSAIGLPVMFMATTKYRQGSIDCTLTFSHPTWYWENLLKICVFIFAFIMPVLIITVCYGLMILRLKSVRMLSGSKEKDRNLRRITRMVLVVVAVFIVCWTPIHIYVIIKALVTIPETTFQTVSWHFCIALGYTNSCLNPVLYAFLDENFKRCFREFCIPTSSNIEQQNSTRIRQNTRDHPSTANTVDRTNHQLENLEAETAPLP

Kappa-type opioid receptor, sequence (P41145 whole entry): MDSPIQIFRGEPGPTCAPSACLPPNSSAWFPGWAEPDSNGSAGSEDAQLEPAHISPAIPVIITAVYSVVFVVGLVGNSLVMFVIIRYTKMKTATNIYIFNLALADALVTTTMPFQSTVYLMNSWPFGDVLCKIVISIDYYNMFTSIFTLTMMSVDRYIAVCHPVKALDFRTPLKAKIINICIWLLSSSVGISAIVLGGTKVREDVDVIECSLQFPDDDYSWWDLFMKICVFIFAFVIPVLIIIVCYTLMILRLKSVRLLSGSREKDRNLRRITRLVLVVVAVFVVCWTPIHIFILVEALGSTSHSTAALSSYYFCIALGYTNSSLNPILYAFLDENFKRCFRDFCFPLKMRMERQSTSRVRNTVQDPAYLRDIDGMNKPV
Voltage-gated inwardly rectifying potassium channel KCNH2, sequence (Q12809 whole entry): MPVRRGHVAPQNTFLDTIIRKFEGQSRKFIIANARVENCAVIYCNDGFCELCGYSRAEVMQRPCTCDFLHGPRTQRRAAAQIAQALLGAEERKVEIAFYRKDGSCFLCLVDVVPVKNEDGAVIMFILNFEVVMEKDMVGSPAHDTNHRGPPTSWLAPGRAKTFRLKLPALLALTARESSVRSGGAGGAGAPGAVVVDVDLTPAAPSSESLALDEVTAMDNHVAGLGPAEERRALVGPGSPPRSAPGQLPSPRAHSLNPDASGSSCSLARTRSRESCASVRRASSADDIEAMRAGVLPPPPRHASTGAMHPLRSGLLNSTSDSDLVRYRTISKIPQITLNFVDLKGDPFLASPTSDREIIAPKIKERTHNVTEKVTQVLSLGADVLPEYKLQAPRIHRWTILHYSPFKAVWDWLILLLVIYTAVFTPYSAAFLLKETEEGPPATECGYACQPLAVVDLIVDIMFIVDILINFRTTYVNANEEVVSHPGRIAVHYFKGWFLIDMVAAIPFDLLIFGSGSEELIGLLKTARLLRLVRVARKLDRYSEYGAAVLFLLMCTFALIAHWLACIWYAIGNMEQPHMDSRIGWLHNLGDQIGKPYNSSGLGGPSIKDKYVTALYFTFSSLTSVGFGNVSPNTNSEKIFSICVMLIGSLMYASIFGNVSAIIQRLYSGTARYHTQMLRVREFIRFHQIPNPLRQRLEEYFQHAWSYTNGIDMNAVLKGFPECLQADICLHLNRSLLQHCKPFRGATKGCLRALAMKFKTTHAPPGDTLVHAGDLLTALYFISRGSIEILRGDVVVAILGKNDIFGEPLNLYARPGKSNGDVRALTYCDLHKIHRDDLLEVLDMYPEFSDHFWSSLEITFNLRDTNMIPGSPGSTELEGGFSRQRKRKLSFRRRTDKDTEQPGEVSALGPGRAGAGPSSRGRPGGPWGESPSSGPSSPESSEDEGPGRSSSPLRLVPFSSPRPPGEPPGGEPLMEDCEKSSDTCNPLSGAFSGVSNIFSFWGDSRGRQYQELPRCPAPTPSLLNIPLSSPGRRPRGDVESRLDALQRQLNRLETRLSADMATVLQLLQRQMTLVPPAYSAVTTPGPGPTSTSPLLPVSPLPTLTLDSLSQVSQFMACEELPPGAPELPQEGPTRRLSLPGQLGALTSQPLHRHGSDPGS

| logD [2] | pIC50 [3] | Compound | other results |
| --- | --- | --- | --- |
| 3.1 | 7.92 | Cc1nn(-c2ccccn2)cc1CN1CCC2(CC1)OCc1ccccc12 | pIC50 [1]: 7.80 |
| – | < 6.00 | c1cc(CN2CCC3(CC2)OCc2ccccc23)cc(-c2ccncc2)c1 | inhibition (CHO): 18% |
| – | 7.23 | CC(C)(C)c1nn(-c2ccccc2)cc1CN1CCC2(CC1)OCc1ccccc12 | – |
| – | < 6.00 | c1cncc(-c2cccc(CN3CCC4(CC3)OCc3ccccc34)c2)c1 | inhibition (CHO): 45% |
| – | 7.89 | Cc1nn(-c2ccccc2)c(C)c1CN1CCC2(CC1)OCc1ccccc12 | – |
| 3.2 | 7.72 | Cc1ccnc(-n2cc(CN3CCC4(CC3)OCc3ccccc34)c(C)n2)c1 | pIC50 [1]: 7.35 |
| – | 7.52 | c1ccc(Cc2nn(-c3ccccc3)cc2CN2CCC3(CC2)OCc2ccccc23)cc1 | – |
| 3.9 | 7.37 | Cc1nn(-c2cccc(Cl)n2)cc1CN1CCC2(CC1)OCc1ccccc12 | – |
| 3.2 | 7.57 | CC(=O)Nc1cccnc1-n1cc(CN2CCC3(CC2)OCc2ccccc23)c(C)n1 | – |
| 3.2 | 6.89 | Cc1nn(-c2cccnc2)cc1CN1CCC2(CC1)OCc1ccccc12 | – |
| 2.1 | 8.72 | Cc1nn(-c2c(Cl)cccc2NS(C)(=O)=O)cc1CN1CCC2(CC1)OCc1ccccc12 | remaining at 0.5 h, 1 µM [4]: 54%; pIC50 [1]: 9.28; remaining at 0.5 h, 1 µM [5]: 69%; pIC50 [6]: < 5.00; pIC50 [7]: 4.77; pIC50 (Mu-type opioid receptor): < 5.00 |
| – | < 6.00 | c1ccc(-c2csc(CN3CCC4(CC3)OCc3ccccc34)n2)cc1 | inhibition (CHO): -7% |
| 3.5 | 6.55 | Cc1nn(-c2ccc(Cl)cn2)cc1CN1CCC2(CC1)OCc1ccccc12 | – |
| 3.1 | 8.35 | Cc1nn(-c2ncccc2Cl)cc1CN1CCC2(CC1)OCc1ccccc12 | remaining at 0.5 h, 1 µM [4]: 60%; pIC50 [1]: 8.57; remaining at 0.5 h, 1 µM [5]: 6%; pIC50 [6]: < 5.00; pIC50 (Mu-type opioid receptor): 5.13 |
| – | < 6.00 | c1cncc(-c2ccc(CN3CCC4(CC3)OCc3ccccc34)cc2)c1 | inhibition (CHO): 15% |
| – | < 6.00 | Cc1nn(-c2ccccc2)nc1CN1CCC2(CC1)OCc1ccccc12 | inhibition (CHO): 36% |
| – | 7.40 | c1ccc(-n2cc(CN3CCC4(CC3)OCc3ccccc34)cn2)cc1 | – |

| logD [2] | pIC50 [3] | Compound | other results |
| --- | --- | --- | --- |
| 2.7 | 8.59 | Cc1cccnc1-n1cc(CN2CCC3(CC2)OCc2ccccc23)c(C)n1 | remaining at 0.5 h, 1 µM [4]: 64%; pIC50 [1]: 8.59; remaining at 0.5 h, 1 µM [5]: 1%; pIC50 [6]: < 5.00; pIC50 [7]: 4.89; pIC50 (Mu-type opioid receptor): 5.36 |
| – | < 6.00 | c1ccc(-c2nc(CN3CCC4(CC3)OCc3ccccc34)cs2)cc1 | inhibition (CHO): 3% |
| 3.7 | 9.19 | Cc1nn(-c2ccccc2Cl)cc1CN1CCC2(CC1)OCc1ccccc12 | pIC50 [1]: 9.06 |
| > 4 | 8.16 | Cc1nn(-c2ccccc2)cc1CN1CCC2(CC1)OCc1ccccc12 | remaining at 0.5 h, 1 µM [4]: 28%; pIC50 [1]: 8.80; remaining at 0.5 h, 1 µM [5]: 4%; pIC50 [6]: 5.01; pIC50 (Mu-type opioid receptor): 5.49 |
| – | 6.51 | c1ccc(-c2cccc(CN3CCC4(CC3)OCc3ccccc34)c2)nc1 | – |
| 1.4 | 7.66 | CNC(=O)c1cccnc1-n1cc(CN2CCC3(CC2)OCc2ccccc23)c(C)n1 | – |
| – | < 6.00 | c1ccc(-n2nccc2CN2CCC3(CC2)OCc2ccccc23)cc1 | inhibition (CHO): -2% |
| – | 8.03 | CCc1nn(-c2ccccc2)cc1CN1CCC2(CC1)OCc1ccccc12 | pIC50 [1]: 8.08 |
| – | 7.68 | CC(C)c1nn(-c2ccccc2)cc1CN1CCC2(CC1)OCc1ccccc12 | – |
| 3.7 | 6.09 | Cc1nn(-c2ccncc2)cc1CN1CCC2(CC1)OCc1ccccc12 | – |
| – | 6.72 | c1ccc(-n2cc(CN3CCC4(CC3)OCc3ccccc34)nn2)cc1 | – |
| – | 7.00 | Cc1c(CN2CCC3(CC2)OCc2ccccc23)cnn1-c1ccccc1 | – |
| – | < 6.00 | c1cncc(-c2ccccc2CN2CCC3(CC2)OCc2ccccc23)c1 | inhibition (CHO): 31% |
| 2.9 | 7.03 | Cc1nn(-c2ncccn2)cc1CN1CCC2(CC1)OCc1ccccc12 | – |
| 3.5 | 6.70 | Cc1nn(-c2cnccn2)cc1CN1CCC2(CC1)OCc1ccccc12 | – |
| 2.1 | 7.96 | Cc1nn(-c2ncccc2NS(C)(=O)=O)cc1CN1CCC2(CC1)OCc1ccccc12 | – |
